According to US7759504B2, “Triarylamine derivative” (Fujifilm Corporation, priority 2007, dated 2010):

Tests used:
Assay type in all cases: physicochemical
[1] = Wet heat resistance of PMMA film sample (colorant residual rate); conditions: 60° C. and relative humidity of 90% for 200 hours; 5% by weight in PMMA film; absorbance after/before treatment
Description: (§1) Into 25 ml of dichloromethane were dissolved 2.5 g of PMMA, and 0.125 g of the triarylamine derivative, and the solution was coated on a 100 μm-thick PET film. This was dried at 80° C. for 2 hours under reduced pressure to prepare a sample for assessment having a thickness of from 2 to 3 μm. The sample for assessment contained the triarylamine derivative at 5% by weight based on PMMA.
(§2) The sample for assessment obtained above was subjected to wet heat treatment at 60° C. and a relative humidity of 90% for 200 hours. The absorbance of the assessment sample at the maximum absorption wavelength of the triarylamine derivative (colorant) was measured, and a colorant residual rate (%) was obtained as a ratio of the absorbance after wet heat treatment relative to the absorbance before wet heat treatment.

[2] = Heat resistance of PMMA film sample (colorant residual rate); conditions: 80° C. for 400 hours; 5% by weight in PMMA film; absorbance at maximum absorption wavelength after/before treatment
Description: as §1
as §2, with “heat-treated” for “subjected to wet heat treatment”, “80°” for “60°”, “C.” for “C. and a relative humidity of 90%”, “400” for “200”, “after” for “after wet”, “before” for “before wet”

[3] = Solubility in 2-butanone (MEK)
[4] = Light resistance of PMMA film sample (colorant residual rate); conditions: 170 hours xenon lamp (170 thousands lux, UV cut filter); 5% by weight in PMMA film; absorbance after/before treatment
Description: as §1
as §2, with “irradiation-treated for 170 hours with” for “subjected to wet heat treatment at 60° C. and”, “xenon lamp (170 thousands lux, using an UV cut filter).” for “relative humidity of 90% for 200 hours.”, “irradiation” for “wet heat”

Wet Heat Resistance (colorant residual rate) [1] [%] | Heat Resistance (colorant residual rate) [2] [%] | Solubility (w/v) [3] [% w/v %] | Light Resistance (colorant residual rate) [4] [%] | SMILES
45 | 80 | 16 | 98 | CCCCN(CCCC)c1ccc([N+](=C2C=CC(=[N+](CCCC)CCCC)C=C2)c2ccc(N(CCCC)CCCC)cc2)cc1 [Comparative Example, reference compound]
48 | 82 | 23 | 98 | CCCCN(CCCC)c1ccc([N+](=C2C=CC(=[N+](CCCC)CCCC)C=C2C)c2ccc(N(CCCC)CCCC)cc2)cc1 [Compound 28]
89 | 87 | 32 | 99 | CCCCN(CCCC)c1ccc([N+](=C2C=CC(=[N+](CCCC)CCCC)C=C2C)c2ccc(N(CCCC)CCCC)cc2)cc1 [Compound 79]
